ChEMBL document CHEMBL3045420, “Regulation of glycogen metabolism by anti-dyslipidemic action of gemfibrozil and cholestyramine in a dyslipidemic-diabetic hamster model” (2008)

Legend:
Syrian golden hamster [1] = experiment: Antidyslipidemic activity in Mesocricetus auratus (Syrian golden hamster) high fat diet-induced dyslipidemic-diabetic model assessed as increase of nonesterfied fatty acid fecal excretion at 500 mg/kg, po qd for 10 days relative to control; assay type: functional, Feces
Syrian golden hamster [2] = experiment: Antidyslipidemic activity in Mesocricetus auratus (Syrian golden hamster) high fat diet-induced dyslipidemic-diabetic model assessed as increase of triglyceride fecal excretion at 500 mg/kg, po qd for 10 days relative to control; assay type: functional, Feces
Syrian golden hamster [3] = experiment: Antidyslipidemic activity in Mesocricetus auratus (Syrian golden hamster) high fat diet-induced dyslipidemic-diabetic model assessed as increase of cholesterylesters fecal excretion at 500 mg/kg, po qd for 10 days relative to control; assay type: functional, Feces
Syrian golden hamster [4] = experiment: Antidyslipidemic activity in Mesocricetus auratus (Syrian golden hamster) high fat diet-induced dyslipidemic-diabetic model assessed as increase of cholesterol fecal excretion at 500 mg/kg, po qd for 10 days relative to control; assay type: functional, Feces
Syrian golden hamster [5] = experiment: Antidyslipidemic activity in Mesocricetus auratus (Syrian golden hamster) high fat diet-induced dyslipidemic-diabetic model assessed as increase of deoxycholic acid fecal excretion at 500 mg/kg, po qd for 10 days relative to control; assay type: functional, Feces
Syrian golden hamster [6] = experiment: Antidyslipidemic activity in Mesocricetus auratus (Syrian golden hamster) high fat diet-induced dyslipidemic-diabetic model assessed as increase of cholic acid fecal excretion at 500 mg/kg, po qd for 10 days relative to control; assay type: functional, Feces
Syrian golden hamster [7] = experiment: Antidyslipidemic activity in Mesocricetus auratus (Syrian golden hamster) high fat diet-induced dyslipidemic-diabetic model assessed as decrease of LHD in muscle by measuring […] oxidation at 500 mg/kg, po qd for 10 days relative to control; assay type: functional
Syrian golden hamster [8] = experiment: Antidyslipidemic activity in Mesocricetus auratus (Syrian golden hamster) high fat diet-induced dyslipidemic-diabetic model assessed as decrease of LHD in liver by measuring […] oxidation at 500 mg/kg, po qd for 10 days relative to control; assay type: functional
Syrian golden hamster [9] = experiment: Antidyslipidemic activity in Mesocricetus auratus (Syrian golden hamster) high fat diet-induced dyslipidemic-diabetic model assessed as increase of glucose-6-phosphatase in liver by measuring […] release per mg of protein at 500 mg/kg, po qd for 10 days relative to control; assay type: functional
Syrian golden hamster [10] = experiment: Antidyslipidemic activity in Mesocricetus auratus (Syrian golden hamster) high fat diet-induced dyslipidemic-diabetic model assessed as increase of hexokinase in muscle by measuring […] release per mg of protein at 500 mg/kg, po qd for 10 days relative to control; assay type: functional
Syrian golden hamster [11] = experiment: Antidyslipidemic activity in Mesocricetus auratus (Syrian golden hamster) high fat diet-induced dyslipidemic-diabetic model assessed as effect on glycogen synthase in muscle by measuring sodium pyruvate release at 500 mg/kg, po qd for 10 days relative to control; assay type: functional
Syrian golden hamster [12] = experiment: Antidyslipidemic activity in Mesocricetus auratus (Syrian golden hamster) high fat diet-induced dyslipidemic-diabetic model assessed as effect on glycogen synthase in liver by measuring sodium pyruvate release at 500 mg/kg, po qd for 10 days relative to control; assay type: functional
Syrian golden hamster [13] = experiment: Antidyslipidemic activity in Mesocricetus auratus (Syrian golden hamster) high fat diet-induced dyslipidemic-diabetic model assessed as increase of glycogen phosphorylase in muscle by measuring […] release per mg of protein at 500 mg/kg, po qd for 10 days relative to control; assay type: functional
Syrian golden hamster [14] = experiment: Antidyslipidemic activity in Mesocricetus auratus (Syrian golden hamster) high fat diet-induced dyslipidemic-diabetic model assessed as increase of glycogen phosphorylase in liver by measuring […] release per mg of protein at 500 mg/kg, po qd for 10 days relative to control; assay type: functional
Syrian golden hamster [15] = experiment: Antidyslipidemic activity in Mesocricetus auratus (Syrian golden hamster) high fat diet-induced dyslipidemic-diabetic model assessed as reduction of total cholesterol level in liver at 500 mg/kg, po qd for 10 days relative to control; assay type: functional
Syrian golden hamster [16] = experiment: Antidyslipidemic activity in Mesocricetus auratus (Syrian golden hamster) high fat diet-induced dyslipidemic-diabetic model assessed as increase of insulin secretion per ml of plasma at 500 mg/kg, po qd for 10 days relative to control; assay type: functional
Syrian golden hamster [17] = experiment: Antidyslipidemic activity in Mesocricetus auratus (Syrian golden hamster) high fat diet-induced dyslipidemic-diabetic model assessed as reduction of glucose level in plasma at 500 mg/kg, po qd for 10 days relative to control; assay type: functional
Syrian golden hamster [18] = experiment: Antidyslipidemic activity in Mesocricetus auratus (Syrian golden hamster) high fat diet-induced dyslipidemic-diabetic model assessed as reduction of glycerol level in plasma at 500 mg/kg, po qd for 10 days relative to control; assay type: functional
Syrian golden hamster [19] = experiment: Antidyslipidemic activity in Mesocricetus auratus (Syrian golden hamster) high fat diet-induced dyslipidemic-diabetic model assessed as reduction of nonesterfied fatty acid level in plasma at 500 mg/kg, po qd for 10 days relative to control; assay type: functional
Syrian golden hamster [20] = experiment: Antidyslipidemic activity in Mesocricetus auratus (Syrian golden hamster) high fat diet-induced dyslipidemic-diabetic model assessed as reduction of triglyceride level in plasma at 500 mg/kg, po qd for 10 days relative to control; assay type: functional
Syrian golden hamster [21] = experiment: Antidyslipidemic activity in Mesocricetus auratus (Syrian golden hamster) high fat diet-induced dyslipidemic-diabetic model assessed as reduction of total cholesterol level in plasma at 500 mg/kg, po qd for 10 days relative to control; assay type: functional
Syrian golden hamster [22] = experiment: Antidyslipidemic activity in Mesocricetus auratus (Syrian golden hamster) high fat diet-induced dyslipidemic-diabetic model assessed as increase of lipase activity in liver at 500 mg/kg, po qd for 10 days relative to control; assay type: functional
Syrian golden hamster [23] = experiment: Antidyslipidemic activity in Mesocricetus auratus (Syrian golden hamster) high fat diet-induced dyslipidemic-diabetic model assessed as reduction of phospholipid level in muscle at 500 mg/kg, po qd for 10 days relative to control; assay type: functional
Syrian golden hamster [24] = experiment: Antidyslipidemic activity in Mesocricetus auratus (Syrian golden hamster) high fat diet-induced dyslipidemic-diabetic model assessed as reduction of phospholipid level in liver at 500 mg/kg, po qd for 10 days relative to control; assay type: functional
Syrian golden hamster [25] = experiment: Antidyslipidemic activity in Mesocricetus auratus (Syrian golden hamster) high fat diet-induced dyslipidemic-diabetic model assessed as reduction of triglyceride level in muscle at 500 mg/kg, po qd for 10 days relative to control; assay type: functional
Syrian golden hamster [26] = experiment: Antidyslipidemic activity in Mesocricetus auratus (Syrian golden hamster) high fat diet-induced dyslipidemic-diabetic model assessed as reduction of triglyceride level in liver at 500 mg/kg, po qd for 10 days relative to control; assay type: functional
Syrian golden hamster [27] = experiment: Antidyslipidemic activity in Mesocricetus auratus (Syrian golden hamster) high fat diet-induced dyslipidemic-diabetic model assessed as increase of glucose-6-phosphate level in muscle at 500 mg/kg, po qd for 10 days relative to control; assay type: functional
Syrian golden hamster [28] = experiment: Antidyslipidemic activity in Mesocricetus auratus (Syrian golden hamster) high fat diet-induced dyslipidemic-diabetic model assessed as increase of glucose-6-phosphate level in liver at 500 mg/kg, po qd for 10 days relative to control; assay type: functional
Syrian golden hamster [29] = experiment: Antidyslipidemic activity in Mesocricetus auratus (Syrian golden hamster) high fat diet-induced dyslipidemic-diabetic model assessed as increase of glycogen level in muscle at 500 mg/kg, po qd for 10 days relative to control; assay type: functional
Syrian golden hamster [30] = experiment: Antidyslipidemic activity in Mesocricetus auratus (Syrian golden hamster) high fat diet-induced dyslipidemic-diabetic model assessed as increase of glycogen level in liver at 500 mg/kg, po qd for 10 days relative to control; assay type: functional
Syrian golden hamster [31] = experiment: Antidyslipidemic activity in Mesocricetus auratus (Syrian golden hamster) high fat diet-induced dyslipidemic-diabetic model assessed as reduction of lipolysis in adipose tissue at 500 mg/kg, po qd for 10 days relative to control; assay type: functional; design: scale not given: the % may be the effect or the level left
Syrian golden hamster [32] = experiment: Antidyslipidemic activity in Mesocricetus auratus (Syrian golden hamster) high fat diet-induced dyslipidemic-diabetic model assessed as increase of lipase activity in muscle at 500 mg/kg, po qd for 10 days relative to control; assay type: functional
Syrian golden hamster [33] = experiment: Antidyslipidemic activity in Mesocricetus auratus (Syrian golden hamster) high fat diet-induced dyslipidemic-diabetic model assessed as reduction of total cholesterol level in muscle at 500 mg/kg, po qd for 10 days relative to control; assay type: functional

Structure (SMILES): Cc1ccc(C)c(OCCCC(C)(C)C(=O)O)c1 [GEMFIBROZIL]
- Activity (Syrian golden hamster [1]): 53.79 µmol/g
- Activity (Syrian golden hamster [2]): 960 µg/g
- Activity (Syrian golden hamster [3]): 258.79 µg/g
- Activity (Syrian golden hamster [4]): 858.81 µg/g
- Activity (Syrian golden hamster [5]): 38.48 µg/g
- Activity (Syrian golden hamster [6]): 65.2 µg/g
- Activity (Syrian golden hamster [7]): 21.73 nmol/min/mg
- Activity (Syrian golden hamster [8]): 3.61 nmol/min/mg
- Activity (Syrian golden hamster [9]): 0.345 µM/min
- Activity (Syrian golden hamster [10]): 0.066 µM/min
- Activity (Syrian golden hamster [11]): 0.063 nmol/min/mg
- Activity (Syrian golden hamster [12]): 0.057 nmol/min/mg
- Activity (Syrian golden hamster [13]): 36.11 µM/h
- Activity (Syrian golden hamster [14]): 5.6 µM/h
- Activity (Syrian golden hamster [15]): 2.61 mg/g
- Activity (Syrian golden hamster [16]): 34 uU/ml
- Activity (Syrian golden hamster [17]): 57.57 mg/dL
- Activity (Syrian golden hamster [18]): 51.66 mg/dL
- Activity (Syrian golden hamster [19]): 1.56 µmol/dL
- Activity (Syrian golden hamster [20]): 220.86 mg/dL
- Activity (Syrian golden hamster [21]): 269.72 mg/dL
- Activity (Syrian golden hamster [22]): 60%
- Activity (Syrian golden hamster [23]): 5.14 mg/g
- Activity (Syrian golden hamster [24]): 10.47 mg/g
- Activity (Syrian golden hamster [25]): 6.3 mg/g
- Activity (Syrian golden hamster [26]): 7.92 mg/g
- Activity (Syrian golden hamster [27]): 0.2 µmol/g
- Activity (Syrian golden hamster [28]): 0.59 µmol/g
- Activity (Syrian golden hamster [29]): 3.6 mg/g
- Activity (Syrian golden hamster [30]): 28.49 mg/g
- Activity (Syrian golden hamster [31]): 19%
- Activity (Syrian golden hamster [32]): 80%
- Activity (Syrian golden hamster [33]): 1.25 mg/g
